Data on 12 compounds can be found in patent US9828375B2, “4-position substituted pyrazolopyrimidine derivative, and use thereof in drug preparation” (Guangxi Wuzhou Pharmaceuticals (Group) Co., Ltd., priority 2012, dated 2017).

Where only a bound is given, the exact number is not on record here.

In assay [1] the target is VEGFR2 (Homo sapiens, UniProt P35968). The assay can be described thus: Kinase inhibition activity test, isotope labeling (γ-33P-ATP): VEGFR2. In kind it is biochemical. Conditions: for IC50: ATP 90 μM, read-out: VEGFR2 IC50 value (inhibitory activity value); for Activity inhibition rate VEGFR2 (h) / inhibition at 10 µM: test compound at a concentration of 10 μM; for inhibition at 10 µM: read-out: Activity inhibition rate VEGFR2 (h). The method, then:
(§1) The purpose of this experiment was to test the inhibitory activity of the compound of the invention for in vitro kinase with the isotope labeling method (the γ phosphate group on ATP was labeled). In this experiment, the in vitro activity inhibition of such kinases as FLT3, VEGFR2, FLT1, FLT4, RET, c-RAF, B-RAF, c-KIT, PDGFα, PDGFβ, FGFR2, FGFR1, EphA2, EphB2, SRC, ABL, ALK and Met was tested respectively. Staurosporine was reference molecule (or referred to as positive control). The kinase inhibition activity of the test compound was expressed by half-inhibitory concentration (IC50) or the kinase activity inhibition rate of the test compound at a concentration of 10 μM. The IC50 value could be obtained by calculating the kinase activity inhibition rate of the test compound at different concentrations.
(§2) 20 mM 3-(N-morpholinyl)propanesulfonic acid (MOPS); 1 mM ethylenediaminetetraacetic acid (EDTA), 0.01% Brij 35 (Brij-35), 5% glycerol, 0.1% mercaptoethanol, 1 mg/mL bovine serum albumin (BSA), 10 mM manganous dichloride solution (MnCl2), 0.1 mg/mL glutamic acid/tyrosine (4:1) polypeptide (poly(Glu, Tyr)4:1), 50 μM EAIYAAPFAKKK (substrate of FLT3), 0.33 mg/mL myelin basic protein (substrate of VEGFR2), 250 μM KKKSPGEYVNIEFG (substrate of FLT1(h)), 500 μM GGEEEEYFELVKKKK (substrate of FLT4(h)), 250 μM KKKSPGEYVNIEFG (substrate of RET), 0.66 mg/mL myelin basic protein (substrate of C-RAF), 250 μM GGMEDIYFEFMGGKKK (substrate of c-Kit), 250 μM GGMEDIYFEFMGGKKK (substrate of PDGFα), 250 μM KKKSPGEYVNIEFG (substrate of FGFR1), […] GGEEEEYFELVKKKK (substrate of SRC), 50 μM EAIYAAPFAKKK (substrate of ABL), 250 μM KKKSPGEYVNIEFG (substrate of ALK), 250 μM KKKSPGEYVNIEFG (substrate of Met(h)), 10 mM magnesium acetate and γ-^33 P-ATP solution, stop buffer (3% phosphate buffer), washing buffer (75 mM phosphate solution), methanol, Filtermat A membrane, FLT3, VEGFR2, FLT3, VEGFR2, FLT1, FLT4, RET, c-RAF, B-RAF, c-KIT, PDGFRα, PDGFRβ, FGFR2, FGFR1, EphA2, EphB2, SRC, ABL, ALK, Met and other kinases, and the test compounds.
(§3) Buffers (8 mM MOPS with pH value of 7.0, 0.2 mM EDTA and 10 mM MnCl2), (5-10 mU) kinases to be tested (FLT3, VEGFR2, FLT1, FLT4, RET, c-RAF, B-RAF, c-KIT, PDGFRα, PDGFRβ, FGFR2, FGFR1, EphA2, EphB2, SRC, ABL, ALK and Met), substrates of kinases to be tested (refer to experimental materials), 10 mM magnesium acetate and γ-^33 P-ATP solution, and test compounds at different concentrations were added to a reaction tube orderly. […] Reaction was terminated with 5 μL 3% phosphate buffer finally, and 10 μL reaction solution was titrated to the Filtermat A membrane; solution was washed for 3 times with 75 mM phosphate solution with each time lasting 5 minutes, and then washed once with methanol. Finally, the Filtermat A membrane was dried, and scintillation counting was performed on the membrane, with scintillation count reflecting the phosphorylation degree of the substrates, so that the activity inhibition of kinase could be characterized.

Assay [2] concerns the target PDGFRα (Homo sapiens, UniProt P16234). Put plainly: Kinase inhibition activity test, isotope labeling: PDGFRα. The class given is biochemical. Conditions: for Activity inhibition rate PDGFRα (h) / inhibition at 10 µM: test compound at a concentration of 10 μM; for inhibition at 10 µM: read-out: Activity inhibition rate PDGFRα (h); for IC50: ATP 120 μM, read-out: PDGFRα IC50 value (inhibitory activity value). The method, then:
as §1, §2, §3

Assay [3] addresses FGFR2 (Homo sapiens, UniProt P21802). Put plainly: Kinase inhibition activity test, isotope labeling: FGFR2. In kind it is biochemical. Conditions: for Activity inhibition rate FGFR2 (h) / inhibition at 10 µM: test compound at a concentration of 10 μM; for inhibition at 10 µM: read-out: Activity inhibition rate FGFR2 (h); for IC50: ATP 90 μM, read-out: FGFR2 IC50 value (inhibitory activity value). On the procedure:
as §1, §2, §3

The subject of assay [4] is human leukemia cell line MV4-11. Put plainly: In vitro tumor cell proliferation inhibition (MTT): MV4-11. In kind it is cell-based. An excerpt: (§4) The purpose of the experiment was to test the inhibition activity of the compounds of the invention for in vitro human tumor cell proliferation by the methyl thiazolyl tetrazolium (MTT) colorimetry.
(§5) Main reagents: RPMI-1640, fetal bovine serum, pancreatin, etc. were purchased from Gibco BRL Company (Invitrogen Corporation, USA) and IMDM medium that was purchased from American Type Culture Collection (ATCC). Methyl thiazolyl tetrazolium (MTT) and dimethyl sulfoxide (DMSO) were products from Sigma Company (USA). Pyrazolopyrimidine derivatives were composed by the inventor. During in vitro experiment, 100% DMSO was prepared into 10 mM storage solution, the solution was stored in a refrigerator at −20° C. for future use, and was diluted to the required concentration with complete culture solution before use.
(§6) Cell line and culture: Human leukemia cell line MV4-11, Jurkat, K562, human thyrophyma cell line TT, human gastric carcinoma cell line MKN-45, human malignant melanoma cell lines A375 and A875, human pancreatic carcinoma cell line panc-1, human cervical carcinoma cell line HELA, human colorectal carcinoma cell line HCT116, etc. were purchased from American type culture collection and were preserved by this laboratory. All leukemia cell lines (except MV4-11), gastric carcinoma cell lines and thyrophyma cell lines were cultured in RPMI-1640 complete medium containing 10% fetal bovine serum, 100 U/mL penicillin and 100 μg/mL streptomycin at 37° C. in 5% CO2. The remaining cell lines were cultured in DMEM complete medium containing 10% fetal bovine serum (containing 20% MV4-11 cell), 100 U/mL penicillin and 100 µg/mL streptomycin at 37° C. in 5% CO2.
(§7) Cell suspension with cell concentration of 1-2×10^4/mL was adjusted with the complete cell medium and inoculated in a 96-well plate, with each well filled with 200 μl cell suspension that was cultured overnight. On the next day, supernatant was sucked and abandoned (supernatant was sucked upon centrifugation of suspension cells), and then cells were processed with test compounds at gradient concentrations respectively. Meanwhile, a negative control group free from drug and a solvent control group with equal volume were set, and the DMSO concentration was 0.1%. Each dose group was provided with three wells and cultured at 37° C. in 5% CO2. After 72 hours, 20 μl 5 mg/mL MTT reagent was added to each well, and cultured for another 2 to 4 hours, the supernatant was abandoned; 150 μL DMSO was added to each well again, vibrated and mixed evenly for 15 minutes; the absorbance (A) values (proportional to living cell amount) were determined with a microplate reader (λ=570 nm) and averaged. […] Experiment was repeated for 3 times at least. Experimental data were expressed with means, data statistics were tested by t, and P<0.05 means that difference has a statistical significance. The cell proliferation inhibition effects of all compounds as follows are expressed by IC50 or inhibition rate.

Assay [5] concerns human pancreatic carcinoma cell line panc-1. The assay can be described thus: In vitro tumor cell proliferation inhibition (MTT): panc-1. In kind it is cell-based.
Excerpt: as §4, §5, §6, §7

PDGFRα, sequence (P16234 24-1089): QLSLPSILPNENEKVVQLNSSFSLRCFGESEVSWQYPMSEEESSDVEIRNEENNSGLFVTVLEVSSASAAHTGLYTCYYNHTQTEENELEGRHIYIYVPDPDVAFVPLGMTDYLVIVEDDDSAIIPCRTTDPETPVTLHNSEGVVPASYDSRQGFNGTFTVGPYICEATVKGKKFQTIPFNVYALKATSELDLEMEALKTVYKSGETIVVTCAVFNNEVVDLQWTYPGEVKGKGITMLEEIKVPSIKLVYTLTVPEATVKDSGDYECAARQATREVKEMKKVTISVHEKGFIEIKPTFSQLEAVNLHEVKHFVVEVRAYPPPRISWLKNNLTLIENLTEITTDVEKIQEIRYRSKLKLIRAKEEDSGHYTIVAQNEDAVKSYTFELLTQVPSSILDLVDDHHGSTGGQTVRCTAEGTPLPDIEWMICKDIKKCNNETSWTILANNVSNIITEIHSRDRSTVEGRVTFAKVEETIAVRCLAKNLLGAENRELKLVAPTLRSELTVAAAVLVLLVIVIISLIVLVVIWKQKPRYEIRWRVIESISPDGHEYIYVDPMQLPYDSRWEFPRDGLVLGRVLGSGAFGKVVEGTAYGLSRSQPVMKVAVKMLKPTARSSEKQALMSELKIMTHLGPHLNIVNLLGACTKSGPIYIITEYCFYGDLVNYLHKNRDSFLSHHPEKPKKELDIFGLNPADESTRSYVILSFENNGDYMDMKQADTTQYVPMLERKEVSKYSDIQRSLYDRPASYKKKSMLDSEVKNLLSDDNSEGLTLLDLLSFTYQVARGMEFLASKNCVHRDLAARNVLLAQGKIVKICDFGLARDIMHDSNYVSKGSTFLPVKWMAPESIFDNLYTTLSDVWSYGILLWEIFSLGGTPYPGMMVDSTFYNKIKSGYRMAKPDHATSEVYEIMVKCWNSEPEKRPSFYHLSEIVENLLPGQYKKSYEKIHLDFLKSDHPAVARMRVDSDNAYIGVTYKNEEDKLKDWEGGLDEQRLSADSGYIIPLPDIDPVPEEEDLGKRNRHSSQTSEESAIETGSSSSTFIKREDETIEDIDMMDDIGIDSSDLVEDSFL
VEGFR2, sequence (P35968 20-1356): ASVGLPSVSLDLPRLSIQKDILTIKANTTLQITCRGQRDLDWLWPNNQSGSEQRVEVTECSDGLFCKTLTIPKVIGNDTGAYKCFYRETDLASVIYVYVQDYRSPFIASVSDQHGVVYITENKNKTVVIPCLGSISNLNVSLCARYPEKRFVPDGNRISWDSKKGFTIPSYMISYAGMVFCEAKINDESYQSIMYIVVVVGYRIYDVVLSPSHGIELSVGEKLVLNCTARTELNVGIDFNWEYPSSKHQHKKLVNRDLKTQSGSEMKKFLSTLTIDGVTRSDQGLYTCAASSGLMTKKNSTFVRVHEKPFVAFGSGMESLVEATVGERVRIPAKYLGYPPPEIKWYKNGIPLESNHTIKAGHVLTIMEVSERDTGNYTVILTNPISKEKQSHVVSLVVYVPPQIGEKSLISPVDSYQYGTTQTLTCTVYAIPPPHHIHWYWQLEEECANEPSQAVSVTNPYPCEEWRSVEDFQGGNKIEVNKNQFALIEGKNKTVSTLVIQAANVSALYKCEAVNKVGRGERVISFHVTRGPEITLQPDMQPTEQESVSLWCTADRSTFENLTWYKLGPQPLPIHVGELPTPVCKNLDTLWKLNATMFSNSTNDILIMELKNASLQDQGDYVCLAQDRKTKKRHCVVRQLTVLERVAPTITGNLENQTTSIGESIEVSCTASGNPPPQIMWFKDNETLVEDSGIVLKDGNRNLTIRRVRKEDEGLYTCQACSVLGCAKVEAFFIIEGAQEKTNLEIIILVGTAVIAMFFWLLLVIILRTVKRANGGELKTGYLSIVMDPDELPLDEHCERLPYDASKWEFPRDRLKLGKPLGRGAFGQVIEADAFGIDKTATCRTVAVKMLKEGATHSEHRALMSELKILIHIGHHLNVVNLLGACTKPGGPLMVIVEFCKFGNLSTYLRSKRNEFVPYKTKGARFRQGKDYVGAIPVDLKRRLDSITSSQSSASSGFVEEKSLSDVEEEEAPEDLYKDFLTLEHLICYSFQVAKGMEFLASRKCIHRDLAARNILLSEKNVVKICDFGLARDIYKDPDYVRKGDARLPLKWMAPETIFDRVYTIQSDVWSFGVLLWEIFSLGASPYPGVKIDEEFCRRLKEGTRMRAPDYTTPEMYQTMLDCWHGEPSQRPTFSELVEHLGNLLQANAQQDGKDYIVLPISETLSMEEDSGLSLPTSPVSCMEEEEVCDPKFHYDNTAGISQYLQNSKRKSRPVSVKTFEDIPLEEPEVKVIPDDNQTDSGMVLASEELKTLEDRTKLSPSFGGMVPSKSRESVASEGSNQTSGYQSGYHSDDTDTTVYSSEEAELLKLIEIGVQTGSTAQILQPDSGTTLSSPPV
FGFR2, sequence (P21802 22-821): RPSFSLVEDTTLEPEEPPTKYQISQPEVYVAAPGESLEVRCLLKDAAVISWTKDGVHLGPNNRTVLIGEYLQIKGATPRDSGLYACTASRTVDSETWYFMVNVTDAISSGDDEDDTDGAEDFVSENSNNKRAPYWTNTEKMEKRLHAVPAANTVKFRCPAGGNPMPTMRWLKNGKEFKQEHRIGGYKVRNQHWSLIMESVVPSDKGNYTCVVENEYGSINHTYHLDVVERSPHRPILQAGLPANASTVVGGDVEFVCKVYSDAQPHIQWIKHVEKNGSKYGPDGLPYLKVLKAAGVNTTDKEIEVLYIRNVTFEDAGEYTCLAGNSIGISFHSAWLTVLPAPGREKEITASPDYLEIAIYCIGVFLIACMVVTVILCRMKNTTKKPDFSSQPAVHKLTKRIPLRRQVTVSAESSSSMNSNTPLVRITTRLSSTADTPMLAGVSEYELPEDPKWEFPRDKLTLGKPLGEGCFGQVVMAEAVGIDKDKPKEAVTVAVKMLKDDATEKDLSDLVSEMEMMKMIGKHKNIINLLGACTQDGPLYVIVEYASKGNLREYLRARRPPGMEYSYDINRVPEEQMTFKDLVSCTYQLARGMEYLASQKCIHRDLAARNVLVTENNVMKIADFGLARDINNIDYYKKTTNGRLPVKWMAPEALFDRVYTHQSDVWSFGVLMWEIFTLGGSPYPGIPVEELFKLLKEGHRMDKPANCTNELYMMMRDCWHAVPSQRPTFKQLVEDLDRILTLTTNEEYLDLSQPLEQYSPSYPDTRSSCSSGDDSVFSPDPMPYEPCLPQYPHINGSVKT

Broadly, the IC50 is the concentration at which inhibition is half-maximal. Regarding “1-(4-((1H-pyrazolopyrimidine-4-yl)oxy)-3-fluorophenyl)-3-(3-trifluoromethoxy)phenyl)urea [4a-8]”, the IC50 in assay [1] is 29 nM; in assay [4] (72 hours), 53 nM; in assay [5] (72 hours) it was 4650 nM. Further, the “Activity inhibition rate VEGFR2 (h)” value in assay [1] was 100%. For the same compound, in assay [2], the “Activity inhibition rate PDGFRα (h)” value amounted to 64%. Also, in assay [3], the “Activity inhibition rate FGFR2 (h)” value is reported as 6%.

In the case of “1-(4-((1H-pyrazolopyrimidine-4-yl)oxy)phenyl)-3-(methylcyclohexyl)urea [4a-20]”, in assay [1], the “Activity inhibition rate VEGFR2 (h)” value turned out to be 64%. Further, the “Activity inhibition rate PDGFRα (h)” value in assay [2] was 93%. Also, the “Activity inhibition rate FGFR2 (h)” value in assay [3] worked out at 19%. Also, the half-maximal inhibitory concentration (IC50) in assay [4] (72 hours) is 363 nM; in assay [5] (72 hours), less than 50000 nM.

By inhibition is commonly meant the percentage by which the read-out fell short of the control. As for `O=C(Nc1ccc(Oc2ncnc3[nH]ncc23)cc1)Nc1ccc(C(F)(F)F)cc1` [4a-1], the half-maximal inhibitory concentration (IC50) was 30 nM in assay [1]; 5 nM in assay [4] (Homo sapiens, MV4-11, 72 h); less than 50000 nM in assay [5] (Homo sapiens, PANC-1, 72 hours). For the same compound, the inhibition at 10 µM in assay [1] worked out at 100%; in assay [2], 63%; in assay [3], 22%.

For the compound `O=C(Nc1ccc(Oc2ncnc3[nH]ncc23)cc1)Nc1ccc(Cl)c(C(F)(F)F)c1` [4a-2], the concentration for half-maximal inhibition (IC50) is 12 nM in assay [1]; 223 nM in assay [2]; 1800 nM in assay [3]; 3 nM in assay [4] (72 hours); less than 50000 nM in assay [5] (72 hours). Besides, the “Activity inhibition rate VEGFR2 (h)” value in assay [1] is listed as 100%. Further, in assay [2], the “Activity inhibition rate PDGFRα (h)” value is 93%. Besides, in assay [3], the “Activity inhibition rate FGFR2 (h)” value was found to be 80%.

For the compound `O=C(Nc1ccc(Oc2ncnc3[nH]ncc23)cc1)Nc1cccc(C(F)(F)F)c1` [4a-6], the IC50 in assay [1] was 11 nM; in assay [2], 322 nM; in assay [3] it was less than 10000 nM; in assay [4] (Homo sapiens, MV4-11, 72 h) it was 4 nM; in assay [5] (Homo sapiens, PANC-1, 72 hours), less than 50000 nM. Besides, the inhibition at 10 µM in assay [1] amounted to 100%; in assay [2], 97%; in assay [3], 56%.

`CC(C)c1cccc(NC(=O)Nc2ccc(Oc3ncnc4[nH]ncc34)c(F)c2)c1` [4a-7, 1-(4-((1H-pyrazolopyrimidine-4-yl)oxy)-3-fluorophenyl)-3-(3-isopropylphenyl)urea]: the values for the concentration for half-maximal inhibition (IC50) in assay [1], in assay [4] (72 hours) and in assay [5] (72 hours) were 32 nM, 11 nM and less than 50000 nM, respectively. For the same compound, in assay [1], the “Activity inhibition rate VEGFR2 (h)” value turned out to be 100%. The “Activity inhibition rate PDGFRα (h)” value in assay [2] amounted to 89%. For the same compound, the “Activity inhibition rate FGFR2 (h)” value in assay [3] is recorded as 51%.

On to `O=C(Nc1ccc(C(F)(F)F)cc1)Nc1ccc(Oc2ncnc3[nH]ncc23)c(F)c1` [4a-9, 1-(4-((1H-pyrazolopyrimidine-4-yl)oxy)-3-fluorophenyl)-3-(4-(trifluoromethyl)phenyl)urea], for which the half-inhibitory concentration (IC50) in assay [1] turned out to be 19 nM; in assay [4] (72 hours), 43 nM; in assay [5] (72 hours), 2310 nM. In addition, the “Activity inhibition rate VEGFR2 (h)” value in assay [1] turned out to be 100%. In addition, the “Activity inhibition rate PDGFRα (h)” value in assay [2] was determined as 24%. In assay [3], the “Activity inhibition rate FGFR2 (h)” value came to 18%.

With `O=C(Nc1ccc(Oc2ncnc3[nH]ncc23)c(F)c1)Nc1ccc(Cl)c(C(F)(F)F)c1` [4a-10, 1-(4-((1H-pyrazolopyrimidine-4-yl)oxy)-3-fluorophenyl)-3-(4-chloro-3-(trifluoromethyl)phenyl)urea], the IC50 in assay [1] was 21 nM; in assay [4] (72 hours), 9 nM; in assay [5] (72 hours), less than 50000 nM. Also, the “Activity inhibition rate VEGFR2 (h)” value in assay [1] is recorded as 100%. Also, the “Activity inhibition rate PDGFRα (h)” value in assay [2] amounted to 52%. In assay [3], the “Activity inhibition rate FGFR2 (h)” value was 53%.

Regarding `O=C(Nc1ccc(Oc2ncnc3[nH]ncc23)cc1)Nc1cc(C(F)(F)F)cc(C(F)(F)F)c1` [4a-12, 1-(4-((1H-pyrazolopyrimidine-4-yl)oxy)phenyl)-3-(3,5-bis(trifluoromethyl)phenyl)urea], the IC50 in assay [1] is 24 nM; in assay [4] (72 hours), 17 nM; in assay [5] (72 hours), less than 50000 nM. The “Activity inhibition rate VEGFR2 (h)” value in assay [1] was 100%. Moreover, the “Activity inhibition rate PDGFRα (h)” value in assay [2] is recorded as 52%. In assay [3], the “Activity inhibition rate FGFR2 (h)” value is 71%.

Take `O=C(Nc1ccc(Oc2ncnc3[nH]ncc23)cc1)Nc1ccc(C(F)(F)F)cc1Cl` [4a-13]: the IC50 in assay [1] is 37 nM; in assay [4] (72 hours), 18 nM; in assay [5] (72 hours) it was less than 50000 nM. Further, the “Activity inhibition rate VEGFR2 (h)” value in assay [1] turned out to be 100%. The “Activity inhibition rate PDGFRα (h)” value in assay [2] came out at 63%. In assay [3], the “Activity inhibition rate FGFR2 (h)” value is given as 13%.

With `O=C(Nc1ccc(Oc2ncnc3[nH]ncc23)cc1)Nc1ccc(N2CCOCC2)cc1` [4a-16, 1-(4-((1H-pyrazolopyrimidine-4-yl)oxy)phenyl)-3-(4-morpholinylphenyl)urea], the inhibition at 10 µM in assay [1] was 91%. Also, the 50% inhibitory concentration (IC50) in assay [4] (Homo sapiens, MV4-11, 72 h) was 89 nM; in assay [5] (Homo sapiens, PANC-1, 72 hours), less than 50000 nM.

For the compound `O=C(Nc1ccc(NC(=O)N2C=NC=C3NNC=C32)cc1)Nc1ccc(Cl)c(C(F)(F)F)c1` [4b-5, 1-(4-(1H-pyrazolopyrimidine-4-amido)phenyl)-3-(4-chloro-3-(trifluoromethyl)phenyl)urea], the inhibition at 10 µM in assay [1] was 97%; in assay [2] it was more than 30%; in assay [3], 52%. The same compound returned a half-maximal inhibitory concentration (IC50) in assay [4] (Homo sapiens, MV4-11, 72 h) of 50 nM.
